Experimental findings from patent US20250186597A1, “TARGETED IMMUNE ACTIVATION WITH IL-18 IMMUNOCYTOKINES” (BRIGHT PEAK THERAPEUTICS AG, priority 2023, published 2025) are described below.

As usually defined, the EC50 is the concentration giving half of the maximal effect. In general, Kd refers to a measure of binding affinity in units of concentration. A higher Kd goes with lower affinity.

The test system of assay [1] is parental PD-1 negative KG-1 cells. As to the kind of experiment: IFN gamma secretion assay in parental PD-1 negative KG-1 cells (Example 11). The class given is cell-based, human. The following applies: IFNγ secretion. The procedure:
(§1) The KG-1 cell line was used to generate a PD-1 expressing cell line and furthermore, to measure IFNγ release upon incubation with IL-18 variants and corresponding IL-18 immunocytokines.
(§2) IFNγ release was assessed in PD-1 positive (transduced) KG-1 cells, as well as in the parental PD-1 negative cells. 0.5×10^5 cells were seeded into a 96-well U-bottom plate in culture media (RPMI, 10% FBS, 1% L-Glutamine) and stimulated with IL-18 variants/ICs for 20-24 h. The test items were diluted to 100 nM in culture medium, followed by 7 10-fold serial dilutions. The lowest concentration assessed was […]. After incubation, IFNγ release was measured using the LEGENDplex custom human mix and match KIT (Biolegend LEGENDplex™ Human IFN-γ Capture Bead B5, 13X #740942, LEGENDplex™ HU Essential Immune Response Panel Detection Abs, #740931, LEGENDplex™ Buffer Set A #740368). To this end, cell culture supernatant was collected and diluted 1:1 with Assay Buffer. Fluorescence measurements were done with a Quanteon Flow Cytometer from Acea Biosciences. For analysis, MFI values (median fluorescence intensity) were exported and plotted against concentrations used. The EC50 values (half maximal effective concentration) were calculated based on a variable slope and four parameter analysis using GraphPad PRISM software version 9.

Assay [2] concerns PD-1positive transduced NK-92 cells. Kind of assay: IFN gamma secretion assay in PD-1 positive transduced NK-92 cells (Example 17). The class given is cell-based, human. The procedure: To show selectivity of the anti-PD1-IL18 immunocytokine (IC) for PD-1 positive cells, the NK-92 cell line was used to generate a PD-1 expressing cell line and furthermore, to measure IFN[…] release upon incubation with IL-18 variants and ICs.
On the day of experiment, parental PD-1negative and PD-1positive transduced cells were harvested and washed with PBS 1× and resuspended in medium (w/o IL-2) containing 1 ng/ml of recombinant human Interleukin-12 (SinoBiologicals, Cat #CT011-H08H). After counting, cells were seeded at 100 000 cells/well in a 384 well culture plate and incubated at 37° C./5% CO2. When indicated, cells were preincubated with anti-PD-1 antibody LZM-009 at 17 uM during 30 min at 37° C. […] The lowest concentration assessed was 0.8 fM.
After 16-20 h incubation at 37° C./5% CO2, 5 μl of supernatant were carefully transferred to a 384 microwell OptiPlate (Perkin Elmer; Cat #6007270) and Interferon-gamma (IFNγ) levels were measured using the Human IFNγ AlphaLISA Assay Kit (Perkin Elmer, Cat #AL217C). […] AlphaLISA signal was then measured on an Enspire plate reader (Perkin Elmer) using 680 and 615 nm as excitation and emission wavelengths respectively. Half maximal effective concentration (EC50) was calculated based on a variable slope, four parameter analysis using GraphPad PRISM software.

The test system of assay [3] is PD-1 positive (transduced) KG-1 cells. Kind of assay: IFN gamma secretion assay in PD-1 transduced KG-1 cells (Example 11). It is filed as cell-based, human. As to the method: as §1
PD-1 expressing cell line generation: Briefly, KG-1 cells were transduced using lentiviral particles carrying the human PD-1 gene (PDCD1 NM_005018; Origene, CAT #: RC210364L3V) at a MOI (Multiplicity of Infection) of 30. Spinfection was performed at 1260 g during 90 min at 37° C. in the presence of 5 μg/ml of Polybrene and 10 mM of HEPES in complete culture media (RPMI, 10% FBS, 1% L-Glutamine). Five days after transduction, puromycin at a final concentration of 1 ug/ml was added to select for PD-1 positive cells. For culture maintenance, puromycin concentration was decreased to 0.5 μg/ml. Stable and homogenous expression of PD-1 was verified by surface staining (BD Pharmingen, #557860).
as §2

The target in assay [4] is T1, human IL-18 Binding Protein (IL-18BP) (Homo sapiens, UniProt O95998).
T1 sequence (O95998 31-194): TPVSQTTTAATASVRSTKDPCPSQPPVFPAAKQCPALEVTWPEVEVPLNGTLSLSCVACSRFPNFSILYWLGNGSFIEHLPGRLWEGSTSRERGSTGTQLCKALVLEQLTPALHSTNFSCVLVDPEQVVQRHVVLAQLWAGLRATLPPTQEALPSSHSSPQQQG
As to the kind of experiment: IL-18 Binding Protein alphaLISA assay (Example 12). The following applies: human IL-18BP. The procedure: Wild type or modified IL-18 polypeptides samples were diluted at 5.6 μM in a solution of 1× alphaLISA Immunoassay Buffer provided in the alphaLISA IFNγ Detection kit and were diluted applying 3-fold serial dilutions down to […] in 384 deep well plates. A solution of 10 ng/ml of human IL-18BP-His was prepared with 1×alphaLISA Immunoassay Buffer. IL-18/IL-18BP complex formation was performed incubating 30 μl of IL-18BP solution to IL-18 sample titrations for 1 h at 20° C. IL-18BP standard was prediluted from stock solution supplied in alphaLISA IFNγ Detection kit at 100 ng/ml with 1×alphaLISA Buffer and titration prepared from applying 2-fold serial dilutions. The following solutions were prepared: a 50 μg/ml solution of anti-IL-18BP alphaLISA Acceptor beads, a 5 nM solution of biotinylated anti-IL18BP antibody and a 80 μg/ml light-protected solution of Streptavidin Donor beads in 1×alphaLISA Immunoassay Buffer. […]
5 μl of Biotinylated anti-IL-18BP antibody were added, followed by a short centrifugation step at 150 g, and incubated for 60 minutes at 20° C. under shaking at 750 rpm. […] AlphaLisa signal was then measured on an Enspire plate reader (Perkin Elmer) using 680 and 615 nm as excitation and emission wavelengths respectively. […]
For orientation: In Alpha technology, singlet oxygen from a donor bead excites a nearby acceptor bead.

Regarding “SEQ ID NO: 1: Native sequence of human IL-18 (bioactive form) [reference compound]”, the EC50 in assay [1] was determined as 0.387 nM; in assay [2] (IFNγ secretion) it was 0.13 nM; in assay [3] (IFNγ secretion, PD-1 transduced KG-1), 0.297 nM. Further, the entries for the “PD-1^neg/PD-1^pos EC50 ratio” value in assay [2] (NK-92 cells) and in assay [3] (KG-1 cells) were 1.4 and 1.298, respectively. This substance came in with a Kd in assay [4] of 0.411 nM.
